Patent EP1145714A1, “DRUGS” (Takeda Chemical Industries, Ltd., priority 1998, dated 2000)

Key:
[1] = test system: vomiting induced by morphine in ferrets; assay: Vomiting induced by morphine in ferrets, oral dosing; type: in vivo; details: morphine 0.3 mg/kg subcutaneous; for A: Number of ferrets with retching/number of tested ferrets / B: Frequency of retching (mean ± SD) / C: Time period until first retching (minute; mean ± SD) / D: Duration of retching (minute; mean ± SD) / E: Number of ferrets with vomiting/number of tested ferrets / F: Frequency of vomiting (mean ± SD) / G: Time period until first vomiting (minute; mean ± SD) / H: Duration of vomiting (minute; mean ± SD): 30 minutes
Experimental: Male 6 or 7 ferrets (1.6 to 2.0 kg) per one group were used. Morphine was subcutaneously administered at0.3 mg/0.3 ml/kg. 2.5 hours before morphine dosing, a small amount of a feed was given to the animals. 30 minutes thereafter, predetermined doses of the compound No. 3 were orally given. To a control animal group under no fasting was orally given a predetermined volume of 0.5 % methyl cellulose solution. A predetermined volume of ondansetron was orally given to the animals under fasting. To a control animal group of ondansetron under fasting was orally given a predetermined volume of physiological saline. The frequency of vomiting was counted up to 30 minutes after morphine dosing. The compound No. 3 was suspended in 0.5 % methyl cellulose solution and was then orally dosed at a ratio of 1 ml per 1 kg body weight. An injection of ondansetron at a concentration of 0.2 w/v % was orally dosed. Additionally, 0.5 % methyl cellulose solution was orally given at a ratio of 1 ml per 1 kg body weight, while physiological saline was orally given at a ratio of 1 ml per 1 kg body weight. The data relating to the frequency of vomiting, the latency and the time period from the occurrence of vomiting to the termination thereof were statistically analyzed by the Dunnett test or t test, with reference to the difference from the control group.
The retching suppression ratio and vomiting suppression ratio were calculated by the following formula. [Frequency of retching or vomiting in control] - [Frequency of retching or vomiting in animals dosed with compound No. 3] / [Frequency of retching or vomiting in control] x 100 (%) [formula]

[2] = test system: vomiting induced by a central emetic agent apomorphine in dogs; assay: Vomiting induced by apomorphine in dogs; type: in vivo, beagle dogs; details: apomorphine 0.1 mg/kg subcutaneous; for B: Frequency of vomiting (mean ± SD) / C: Time period until first vomiting (minute; mean ± SD) / D: Duration of vomiting (minute; mean ± SD) / Number of dogs with vomiting/number of tested dogs: one hour
Experimental: 3 male or female beagle dogs (7.8 to 15.9 kg) per one group were used. Apomorphine was subcutaneously given at 0.1 mg/ml/kg. 2.5 hours prior to apomorphine administration, a small amount of a feed was given to the animals. 30 minutes thereafter, predetermined doses of the compound No. 3 were orally given. Similarly, 0.5 % methyl cellulose solution was orally given to a control animal group under no fasting. A predetermined dose of ondansetron was given orally to the animals under fasting. The frequency of vomiting was counted in number, up to one hour after apomorphine administration. The compound No. 3 was dissolved in 0.5 % methyl cellulose solution, for oral dosing at a ratio of 1 ml per 1 kg • body weight. An injection of ondansetron at a concentration of 0.2% w/v was orally given. Additionally, 0.5 % methyl cellulose solution was orally given at a ratio of 1 ml per 1 kg • body weight. The data relating to the frequency of vomiting, the latency and the time period from the occurrence of vomiting to the termination thereof were statistically analyzed by the Dunnett test, with reference to the difference from the control group.
The vomiting suppression ratio was calculated by the following formula.

[3] = test system: cisplatin-induced acute vomiting in dogs; assay: Cisplatin-induced acute vomiting in dogs, compound intravenously given; type: in vivo, beagle dogs; details: cisplatin 3 mg/kg i.v.; for Duration of vomiting (in hour;, mean ± SD) / Frequency of vomiting (mean ± SD) / Number of dogs with vomiting/number of tested dogs / Time period until first vomiting (in hour;, mean ± SD): 5 hours
Experimental: Male or female 3 beagle dogs (7.3 to 12.0 kg) per one group were used. Cisplatin was intravenously administered at 3 mg/3 ml/kg. 30 minutes before cisplatin administration, predetermined doses of the compound No. 3 were intravenously given to the animals under fasting. Similarly, a predetermined volume of PEG 400 was intravenously given to a control animal group under fasting.
The compound No. 3 was dissolved in PEG 400 to predetermined concentrations, for intravenous dosing at a ratio of 1 ml per 1 kg body weight. Additionally, PEG 400 was intravenously given at a ratio of 1 ml per 1 kg body weight. The data relating to the frequency of vomiting, the latency and the time period from the occurrence of vomiting to the termination thereof were statistically analyzed by the Dunnett test, with reference to the difference from the control group.
The acute retching suppression ratio and acute vomiting suppression ratio were determined in the same manner as in Example 1,3.

Cc1ccc(-c2c3n(c(=O)c4ncccc24)CC[C@@H](C)CN(Cc2cc(C(F)(F)F)cc(C(F)(F)F)c2)C3=O)cc1 [Cpd. No.3, (9R)-7-[3,5-bis(trifluoromethyl)benzyl]-6,7,8,9,10,11-hexahydro-9-methyl-5-(4-methylphenyl)-6,13-dioxo-13H-[1,4]diazocino[2,1-g][1,7]naphthylidine]
Acute vomiting suppression ratio ([1]; 1 mg/kg p.o.): 31 % NS
Effect on retching and vomiting (in words) ([1]; 1 mg/kg p.o.): likely to be suppressed
Pseudo-vomiting suppression ratio ([1]; 1 mg/kg p.o.): 43 % NS
A: Number of ferrets with retching/number of tested ferrets ([1]; 1 mg/kg p.o.): 4/6
B: Frequency of retching (mean ± SD) ([1]; 1 mg/kg p.o.): 18.3 ± 7.0
C: Time period until first retching (minute; mean ± SD) ([1]; 1 mg/kg p.o.): 12.3 ± 5.6 min
D: Duration of retching (minute; mean ± SD) ([1]; 1 mg/kg p.o.): 5.5 ± 1.9 min
E: Number of ferrets with vomiting/number of tested ferrets ([1]; 1 mg/kg p.o.): 4/6
F: Frequency of vomiting (mean ± SD) ([1]; 1 mg/kg p.o.): 2.5 ± 1.0
G: Time period until first vomiting (minute; mean ± SD) ([1]; 1 mg/kg p.o.): 13.3 ± 5.4 min
H: Duration of vomiting (minute; mean ± SD) ([1]; 1 mg/kg p.o.): 3.8 ± 1.9 min
Acute vomiting suppression ratio ([1]; 3 mg/kg p.o.): 86 % a
Effect on retching and vomiting (in words) ([1]; 3 mg/kg p.o.): significantly suppressed
Pseudo-vomiting suppression ratio ([1]; 3 mg/kg p.o.): 79 % b
A: Number of ferrets with retching/number of tested ferrets ([1]; 3 mg/kg p.o.): 5/6
B: Frequency of retching (mean ± SD) ([1]; 3 mg/kg p.o.): 6.8 ± 2.6 b
C: Time period until first retching (minute; mean ± SD) ([1]; 3 mg/kg p.o.): 10.5 ± 3.9 min
D: Duration of retching (minute; mean ± SD) ([1]; 3 mg/kg p.o.): 2.7 ± 1.7 min
E: Number of ferrets with vomiting/number of tested ferrets ([1]; 3 mg/kg p.o.): 1/6
F: Frequency of vomiting (mean ± SD) ([1]; 3 mg/kg p.o.): 0.5 ± 0.5 a
G: Time period until first vomiting (minute; mean ± SD) ([1]; 3 mg/kg p.o.): 25.8 ± 4.2 b minute
H: Duration of vomiting (minute; mean ± SD) ([1]; 3 mg/kg p.o.): 1.5 ± 1.5 min
Effect on vomiting (in words) ([2]; 3 mg/kg p.o.): likely to be suppressed
Vomiting suppression ratio ([2]; 3 mg/kg p.o.): 48 % NS
B: Frequency of vomiting (mean ± SD) ([2]; 3 mg/kg p.o.): 6.3 ± 1.3
C: Time period until first vomiting (minute; mean ± SD) ([2]; 3 mg/kg p.o.): 7.2 ± 0.6 min
D: Duration of vomiting (minute; mean ± SD) ([2]; 3 mg/kg p.o.): 12.0 ± 3.0 min
Number of dogs with vomiting/number of tested dogs ([2]; 3 mg/kg p.o.): 3/3
Effect on the duration of vomiting from the start to the termination (in words) ([2]; 10 mg/kg p.o.): greatly shortened
Effect on vomiting (in words) ([2]; 10 mg/kg p.o.): prominently suppressed
Vomiting suppression ratio ([2]; 10 mg/kg p.o.): 89 % a
B: Frequency of vomiting (mean ± SD) ([2]; 10 mg/kg p.o.): 1.3± 0.9b
C: Time period until first vomiting (minute; mean ± SD) ([2]; 10 mg/kg p.o.): 27.6 ± 13.8 min
D: Duration of vomiting (minute; mean ± SD) ([2]; 10 mg/kg p.o.): 1.2 ± 1.2 a minute
Number of dogs with vomiting/number of tested dogs ([2]; 10 mg/kg p.o.): 2/3
Suppression ratio of acute vomiting ([3]; 0.3 mg/kg i.v.): 34 % b
Duration of vomiting (in hour;, mean ± SD) ([3]; 0.3 mg/kg i.v.): 1.6 ± 0.2 h
Frequency of vomiting (mean ± SD) ([3]; 0.3 mg/kg i.v.): 12.0 ± 1.5a
Number of dogs with vomiting/number of tested dogs ([3]; 0.3 mg/kg i.v.): 3/3
Time period until first vomiting (in hour;, mean ± SD) ([3]; 0.3 mg/kg i.v.): 1.6 ± 0.2 h
Effect on cisplatin-induced vomiting (in words) ([3]; 0.3 mg/kg or higher i.v.): significantly suppressed
Suppression ratio of acute vomiting ([3]; 1 mg/kg i.v.): 71 % b
Duration of vomiting (in hour;, mean ± SD) ([3]; 1 mg/kg i.v.): 1.7 ± 0.5 h
Frequency of vomiting (mean ± SD) ([3]; 1 mg/kg i.v.): 5.3 ± 1.2 a
Number of dogs with vomiting/number of tested dogs ([3]; 1 mg/kg i.v.): 3/3
Time period until first vomiting (in hour;, mean ± SD) ([3]; 1 mg/kg i.v.): 1.4 ± 0.3 h
Effect on cisplatin-induced vomiting (in words) ([3]; 3 mg/kg i.v.): almost completely suppressed
Suppression ratio of acute vomiting ([3]; 3 mg/kg i.v.): 96 % b
Duration of vomiting (in hour;, mean ± SD) ([3]; 3 mg/kg i.v.): 0.1 ± 0.1 a hour
Frequency of vomiting (mean ± SD) ([3]; 3 mg/kg i.v.): 0.7 ± 0.7 a
Number of dogs with vomiting/number of tested dogs ([3]; 3 mg/kg i.v.): 1/3
Time period until first vomiting (in hour;, mean ± SD) ([3]; 3 mg/kg i.v.): 3.9 ± 1.1 a hour
Effect on the latency (in words) ([3]; i.v.): prolonged

Cc1nccn1CC1CCc2c(c3ccccc3n2C)C1=O (stereo not shown) [Ondansetron, ondansetron, reference compound]
Acute vomiting suppression ratio ([1]; 3 mg/kg p.o.): 0 % NS
Effect on retching and vomiting (in words) ([1]; 3 mg/kg p.o.): did not suppress
Pseudo-vomiting suppression ratio ([1]; 3 mg/kg p.o.): 12 % NS
A: Number of ferrets with retching/number of tested ferrets ([1]; 3 mg/kg p.o., under fasting): 5/6
B: Frequency of retching (mean ± SD) ([1]; 3 mg/kg p.o., under fasting): 17.2 ± 6.4
C: Time period until first retching (minute; mean ± SD) ([1]; 3 mg/kg p.o., under fasting): 8.8 ± 4.3 min
D: Duration of retching (minute; mean ± SD) ([1]; 3 mg/kg p.o., under fasting): 5.0 ± 2.3 min
E: Number of ferrets with vomiting/number of tested ferrets ([1]; 3 mg/kg p.o., under fasting): 5/6
F: Frequency of vomiting (mean ± SD) ([1]; 3 mg/kg p.o., under fasting): 2.3 ± 1.2
G: Time period until first vomiting (minute; mean ± SD) ([1]; 3 mg/kg p.o., under fasting): 9.2 ± 4.2 min
H: Duration of vomiting (minute; mean ± SD) ([1]; 3 mg/kg p.o., under fasting): 3.7 ± 2.6 min
Effect on vomiting (in words) ([2]; 10 mg/kg p.o.): did not suppress
Vomiting suppression ratio ([2]; 10 mg/kg p.o.): 0 % NS
B: Frequency of vomiting (mean ± SD) ([2]; 10 mg/kg p.o.): 13.7 ± 2.4
C: Time period until first vomiting (minute; mean ± SD) ([2]; 10 mg/kg p.o.): 2.4 ± 0.6 min
D: Duration of vomiting (minute; mean ± SD) ([2]; 10 mg/kg p.o.): 22.8 ± 3.6 min
Number of dogs with vomiting/number of tested dogs ([2]; 10 mg/kg p.o.): 3/3
